Assay results published in US10988474B2, “Compounds acting at multiple prostaglandin receptors giving a general anti-inflammatory response” (ALLERGAN, INC., priority 2011, dated 2021).

How the values were obtained:
Assay type in all cases: cell-based
[1] = target: T1, human prostanoid EP3 receptor (Homo sapiens, UniProt P43115); assay: FLIPR Ca2+ signaling PG antagonist assay, EP3 stable cell line; conditions: HEK-293 EBNA cells, human recombinant EP3 with chimeric Gqi; standard agonist PGE2
T1 construct: expressed in transfected cells
T1 sequence (P43115 1-390): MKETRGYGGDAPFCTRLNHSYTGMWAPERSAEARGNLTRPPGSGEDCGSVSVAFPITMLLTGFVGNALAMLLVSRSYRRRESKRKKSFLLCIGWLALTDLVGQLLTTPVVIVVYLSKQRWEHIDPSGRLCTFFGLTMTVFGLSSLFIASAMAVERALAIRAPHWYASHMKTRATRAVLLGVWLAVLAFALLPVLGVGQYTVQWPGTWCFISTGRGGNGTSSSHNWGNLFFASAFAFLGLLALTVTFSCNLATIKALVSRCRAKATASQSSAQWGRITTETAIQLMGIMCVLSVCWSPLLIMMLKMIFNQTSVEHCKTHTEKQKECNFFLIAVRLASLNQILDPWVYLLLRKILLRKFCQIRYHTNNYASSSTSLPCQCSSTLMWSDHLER
Description: (§1) The above compounds were tested for PG antagonist activity as follows using human recombinant prostanoid receptor (DP1, EP1-4, FP, IP and TP) stable cell lines: In order to measure the response of Gs and Gi coupled prostanoid receptors as a Ca^2+ signal, chimeric G protein cDNAs were used. Stable cell lines over-expressing human prostanoid DP1, EP1-4, FP, IP, and TP receptors were established as follows:
(§2) Briefly, human prostanoid DP1, EP2, and EP4 receptor cDNAs were co-transfected with chimeric Gqs cDNA containing a haemagglutanin (HA) epitope; human prostanoid EP3 receptors were co-transfected with chimeric Gqi-HA; human EP1, FP, IP, and TP receptor cDNAs were expressed with no exogenous G-proteins. Gqs and Gqi chimeric cDNAs (Molecular Devices, Sunnyvale, Calif., U.S.A.), as well as cDNAs of prostanoid receptors, were cloned into a pCEP4 vector with a hygromycin B selection marker. Transfection into HEK-293 EBNA (Epstein-Barr virus nuclear antigen) cells was achieved by the FuGENE 6 transfection Reagent (Roche Applied Science, Indianapolis, Ind., USA). Stable transfectants were selected according to hygromycin resistance. Because Gqs and Gqi contained an HA epitope, G-protein expression was detected by Western blotting analysis using anti-mouse HA monoclonal antibody and horseradish peroxidase (HRP)-conjugated secondary antibody, while functional expression of prostanoid receptors was detected by FLIPR screening (Matias et al., 2004). These stable cell lines were validated using previously published antagonists at 10 μM against serial dilutions of standard agonists by FLIPR functional assays for Ca^2+ Signaling (as described below).
(§3) Ca^2+ signaling studies were performed using a FLIPR TETRA system (Molecular Devices, Sunnyvale, Calif., USA) in the 384-format. This is a high-throughput instrument for cell-based assays to monitor Ca^2+ signaling associated with GPCRs and ion channels. Cells were seeded at a density of 5×10^4 cells/well in BioCoat poly-D-lysine coated, black wall, clear bottom 384-well plates (BD Biosciences, Franklin lakes, NJ, USA) and allowed to attach overnight in an incubator at 37° C. The cells were then washed twice with HBSS-HEPES buffer (Hanks' balanced salt solution without bicarbonate and phenol red, 20 mM HEPES, pH 7.4) using an ELx405 Select CW Microplate Washer (BioTek, Winooski, Vt., USA). After 60 min of dye-loading in the dark using the Ca^2+-sensitive dye Fluo-4AM (Invitrogen, Carlsbad, Calif., USA), at a final concentration of 2×10^−6M, the plates were washed 4 times with HBSS-HEPES buffer to remove excess dye and leaving 50 μl of buffer in each well. The plates were then placed in the FLIPR TETRA instrument and allowed to equilibrate at 37° C. Compounds were added in a 25 μl volume to each well to give final concentrations of 0.1 μM, 0.3 μM, 1 μM, 3 μM, 10 μM, and 30 μM; or 0.067 μM, 0.1 μM, 0.2 μM, 0.3 μM, 0.67 μM, and 1 μM for cells over-expressing TP receptors. After 4.5 minutes, a 7-point serial dilution of the standard agonist for the corresponding receptor, in a 25 μl volume was injected at the final concentrations from 10^−11M to 10^−5M in 10-fold serial dilution increments for cells expressing human recombinant DP1, EP1, EP2, EP3, EP4, FP, and IP receptors. The dose range for the standard agonist for human recombinant TP receptors was from 10^−12M to 10^−6M. HBSS-HEPES buffer was used as the negative control for the standard agonists. Cells were excited with LED (light emitting diode) excitation at 470-495 nm and emission was measured through an emission filter at 515-575 nm. Assay plates were read for 3.5 minutes using the FLIPR^TETRA. The peak increase in fluorescence intensity was recorded for each well. On each plate, negative controls, dose response of positive controls, and co-treatments of antagonist-agonist for each dose were in triplicates. Standard agonists were as follows: DP=BW 245C, EP1-EP4=PGE2, FP=17-phenyl-PGF2α, IP=Cicaprost, and TP=U-46619. […]

[2] = target: T2, human prostanoid EP2 receptor (Homo sapiens, UniProt P43116); assay: FLIPR Ca2+ signaling PG antagonist assay, EP2 stable cell line; conditions: HEK-293 EBNA cells, human recombinant EP2 with chimeric Gqs; standard agonist PGE2
T2 construct: expressed in transfected cells
T2 sequence (P43116 whole entry): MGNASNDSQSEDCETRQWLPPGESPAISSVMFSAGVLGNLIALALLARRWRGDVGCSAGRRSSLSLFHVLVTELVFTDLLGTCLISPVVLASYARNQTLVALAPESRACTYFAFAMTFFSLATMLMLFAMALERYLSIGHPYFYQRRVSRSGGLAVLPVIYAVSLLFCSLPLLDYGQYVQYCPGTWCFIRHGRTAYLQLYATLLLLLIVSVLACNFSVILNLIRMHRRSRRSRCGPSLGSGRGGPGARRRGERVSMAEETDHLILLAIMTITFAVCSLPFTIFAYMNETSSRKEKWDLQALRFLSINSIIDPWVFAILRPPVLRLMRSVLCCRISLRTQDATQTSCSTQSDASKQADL
Description: as §1, §2, §3

[3] = target: T3, human prostanoid IP receptor (Homo sapiens, UniProt P43119); assay: FLIPR Ca2+ signaling PG antagonist assay, IP stable cell line; conditions: HEK-293 EBNA cells, human recombinant IP, no exogenous G-protein; standard agonist Cicaprost
T3 construct: expressed in transfected cells
T3 sequence (P43119 whole entry): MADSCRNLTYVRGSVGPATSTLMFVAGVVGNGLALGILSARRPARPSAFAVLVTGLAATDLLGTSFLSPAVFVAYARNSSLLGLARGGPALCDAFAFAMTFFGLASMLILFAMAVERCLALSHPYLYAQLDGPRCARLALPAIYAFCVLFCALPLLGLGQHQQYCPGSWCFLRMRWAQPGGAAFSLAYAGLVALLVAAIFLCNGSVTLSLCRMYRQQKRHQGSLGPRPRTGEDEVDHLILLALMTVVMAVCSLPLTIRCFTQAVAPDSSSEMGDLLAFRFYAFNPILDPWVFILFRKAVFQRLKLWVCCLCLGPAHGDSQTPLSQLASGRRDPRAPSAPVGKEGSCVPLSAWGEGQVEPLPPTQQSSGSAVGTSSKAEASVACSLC
Description: as §1, §2, §3

[4] = target: T4, human prostanoid FP receptor (Homo sapiens, UniProt P43088); assay: FLIPR Ca2+ signaling PG antagonist assay, FP stable cell line; conditions: HEK-293 EBNA cells, human recombinant FP, no exogenous G-protein; standard agonist 17-phenyl-PGF2α
T4 construct: expressed in transfected cells
T4 sequence (P43088 whole entry): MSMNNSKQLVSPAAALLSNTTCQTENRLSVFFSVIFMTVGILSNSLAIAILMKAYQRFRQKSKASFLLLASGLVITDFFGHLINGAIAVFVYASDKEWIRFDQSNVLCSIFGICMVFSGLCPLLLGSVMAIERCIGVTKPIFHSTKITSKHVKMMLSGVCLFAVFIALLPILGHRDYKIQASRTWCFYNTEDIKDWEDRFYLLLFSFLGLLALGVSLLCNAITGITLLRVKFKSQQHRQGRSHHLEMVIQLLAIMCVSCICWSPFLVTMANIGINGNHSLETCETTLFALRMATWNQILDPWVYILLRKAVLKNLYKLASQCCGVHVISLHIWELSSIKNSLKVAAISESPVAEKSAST
Description: as §1, §2, §3

[5] = target: T5, human prostanoid DP1 receptor (Homo sapiens, UniProt Q13258); assay: FLIPR Ca2+ signaling PG antagonist assay, DP1 stable cell line; conditions: HEK-293 EBNA cells, human recombinant DP1 with chimeric Gqs; standard agonist BW 245C; read-out: DP (Kb, PG antagonist activity)
T5 construct: expressed in transfected cells
T5 sequence (Q13258 1-359): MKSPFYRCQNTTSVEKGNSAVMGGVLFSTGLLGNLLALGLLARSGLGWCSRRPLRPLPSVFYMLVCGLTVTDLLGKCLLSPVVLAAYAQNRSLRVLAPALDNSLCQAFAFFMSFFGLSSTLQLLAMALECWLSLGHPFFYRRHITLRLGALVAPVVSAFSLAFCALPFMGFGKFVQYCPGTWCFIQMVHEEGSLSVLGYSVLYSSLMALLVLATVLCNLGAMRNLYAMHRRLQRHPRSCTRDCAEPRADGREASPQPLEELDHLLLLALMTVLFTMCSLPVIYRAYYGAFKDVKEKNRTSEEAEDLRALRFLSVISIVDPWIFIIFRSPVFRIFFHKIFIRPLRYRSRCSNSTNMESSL
Description: as §1, §2, §3

| SMILES | Kb [1] [nM] | Kb [2] [nM] | Kb [3] [nM] | Kb [4] [nM] | Kb [5] [nM] |
| --- | --- | --- | --- | --- | --- |
| O=C(O)c1cccc2nn(Cc3cc(Cl)ccc3OCc3ccc(Cl)cc3)cc12 [Example 41, 2-[5-Chloro-2-(4-Chloro-Benzyloxy)-Benzyl]-2H-Indazole-4-Carboxylic Acid] | ≥ 10000 | ≥ 10000 | 9800 | ≥ 10000 | 4700 |
| CCC(CC)COc1ccc(C(F)(F)F)cc1Cn1nc(C)c2cc(C(=O)O)ccc21 [Example 26, 1-[2-(2-Ethyl-Butoxy)-5-Trifluoromethyl-Benzyl]-3-Methyl-1H-Indazole-5-Carboxylic Acid] | 3300 | ≥ 10000 | 1800 | 500 | 1700 |
| CCC(CC)COc1ccc(Br)cc1Cn1ccc2cc(C(=O)O)ccc21 [Example 69, 1-[5-Bromo-2-(2-Ethyl-Butoxy)-Benzyl]-1H-Indole-5-Carboxylic Acid] | 7900 | ≥ 10000 | 3000 | 800 | 3700 |
| CCC(CC)Oc1ccc(Br)cc1Cn1ncc2cc(C(=O)O)ccc21 [Example 51, 1-[5-Bromo-2-(1-Ethyl-Propoxy)-Benzyl]-1H-Indazole-5-Carboxylic Acid] | 2600 | ≥ 10000 | 1100 | 110 | 600 |
| CC(C)COc1ccc(Br)cc1Cn1ncc2cc(C(=O)O)ccc21 [Example 4] | 1500 | 1800 | 800 | 20 | 700 |
| CC(C)COc1ccc(C(F)(F)F)cc1Cn1ncc2cc(C(=O)O)ccc21 [Example 18] | 4000 | ≥ 10000 | 6500 | 20 | 1400 |
| Cc1nn(Cc2cc(Br)ccc2OCC(C)C)c2ccc(C(=O)O)cc12 [Example 21, 1-(5-Bromo-2-Isobutoxy-Benzyl)-3-Methyl-1H-Indazole-5-Carboxylic Acid] | 2200 | 3500 | 900 | 30 | 100 |
| CC(C)(O)COc1ccc(Br)cc1Cn1ncc2cc(C(=O)O)ccc21 [Example 53, 1-[5-Bromo-2-(2-Hydroxy-2-Methyl-Propoxy)-Benzyl]-1H-Indazole-5-Carboxylic Acid] | ≥ 10000 | ≥ 10000 | ≥ 10000 | 230 | ≥ 10000 |
| CC(C)COc1ccc(OC(F)(F)F)cc1Cn1ncc2cc(C(=O)O)cnc21 [Example 58, 1-(2-Isobutoxy-5-Trifluoromethoxy-Benzyl)-1H-Pyrazolo[3,4-B]Pyridine-5-Carboxylic Acid] | 9800 | ≥ 10000 | ≥ 10000 | 60 | 1800 |
| Cc1nn(Cc2cc(Br)ccc2OCC2(C)CC2)c2ccc(C(=O)O)cc12 [Example 28, 1-[5-Bromo-2-(1-Methyl-Cyclopropylmethoxy)-Benzyl]-3-Methyl-1H-Indazole-5-Carboxylic Acid] | 2220 | 9200 | 1530 | 70 | 730 |
| Cc1cn(Cc2cc(OC(F)(F)F)ccc2OCC(C)C)c2ccc(C(=O)O)cc12 [Example 75, 1-(2-Isobutoxy-5-Trifluoromethoxy-Benzyl)-3-Methyl-1H-Indole-5-Carboxylic Acid] | ≥ 10000 | 6400 | 4400 | 330 | 1300 |
| CC(C)COc1c(F)cc(Cl)cc1Cn1ncc2cc(C(=O)O)ccc21 [Example 47, 1-(5-Chloro-3-Fluoro-2-Isobutoxy-Benzyl)-1H-Indazole-5-Carboxylic Acid] | ≥ 10000 | ≥ 10000 | 4800 | 4700 | 700 |
| Cc1nn(Cc2cc(C(F)(F)F)ccc2OCC(C)C)c2ccc(C(=O)O)cc12 [Example 25, 1-(2-Isobutoxy-5-Trifluoromethyl-Benzyl)-3-Methyl-1H-Indazole-5-Carboxylic Acid] | 4500 | 9300 | 1030 | 180 | 220 |
| CCC(CC)COc1ccc(Cl)cc1Cn1nc(C)c2cc(C(=O)O)ccc21 [Example 23, 1-[5-Chloro-2-(2-Ethyl-Butoxy)-Benzyl]-3-Methyl-1H-Indazole-5-Carboxylic Acid] | 1200 | 7100 | 500 | 170 | 900 |
| O=C(O)c1ccc2c(cnn2Cc2cc(Cl)ccc2OCc2ccccc2)c1 [Example 8, 1-(2-Benzyloxy-5-Chloro-Benzyl)-1H-Indazole-5-Carboxylic Acid] | ≥ 10000 | 5000 | 2800 | 200 | 2600 |
| CCC(CC)COc1ccc(Cl)cc1Cn1ncc2cc(C(=O)O)ncc21 [Example 63, 1-[5-Chloro-2-(2-Ethyl-Butoxy)-Benzyl]-1H-Pyrazolo[3,4-C]Pyridine-5-Carboxylic Acid] | 7400 | ≥ 10000 | 5000 | 2400 | ≥ 10000 |
| CC1(COc2ccc(Br)cc2Cn2ncc3cc(C(=O)O)ccc32)CC1 [Example 19] | 3600 | 8800 | 4600 | 16 | 1200 |
| CC(C)COc1ccc(OC(F)F)cc1Cn1ncc2cc(C(=O)O)ccc21 [Example 56, 1-(5-Difluoromethoxy-2-Isobutoxy-Benzyl)-1H-Indazole-5-Carboxylic Acid] | 8800 | ≥ 10000 | 4100 | 24 | 1800 |
